Literature values as cited in US20230097323A1, “Method and Devices for Transdermal Delivery of Hydrogen Gas for Therapeutic Purposes” (Hyderm Innovations LLC, priority 2021, published 2023).

Experiments:
[1] = at ambient temperature
[2] = transdermal supply, bag fitted snugly to the skin

In the case of `[HH]` [hydrogen, Molecular hydrogen], the “solubility of hydrogen in water” value [1] is listed as “about 1.6 mg/l” and the “time until hydrogen concentration in the skin reaches a plateau” value [2] is listed as 40 to 60 min.
